# Results reported in PMC8760230, “Translational Development of a Zr-89-Labeled Inhibitor of Prostate-specific Membrane Antigen for PET Imaging in Prostate Cancer” (Molecular Imaging and Biology, 2021).
# Where “and” joins values, the source holds several entries; their conditions need not be identical. Equal entries are not always repeated. Entries after “also recorded” stand apart in the source; their conditions may differ. Where two headings read alike, the source gives them in different places.
# How the values were obtained:
# LNCaP tumor xenograft = experiment: Small-animal PET in mice bearing an LNCaP tumor xenograft, with and without blocking by 2-PMPA
# prostate cancer relapse = experiment: First-in-human PET/CT scan in a patient with biochemical recurrence of prostate cancer; conditions: for SUVmax left prostate lobe / SUVmax right prostate lobe: 93 MBq
# Method: The patient had given their written informed consent for PET imaging and the scientific evaluation of their data. All procedures were performed in accordance with the Institutional Review Board and the regulations of the regional authorities in Cologne. The kidney dose was estimated on the basis of two PET scans. The following assumptions were made for the estimation: Between time 0 (injection) and the first measuring point, the time-activity-curve follows a constant progression. All measuring points were integrated numerically using trapezoidal approximation. From the last measuring point to infinity, a mono-exponential function was fitted and integrated. As the effective half-life could not be accurately determined from two measurement points, the physical half-life of Zr-89 was used instead.
# LNCaP tumor xenografts = conditions: for Tumor/blood ratio / Tumor/kidneys ratio / Tumor/liver ratio / Tumor/muscle ratio: LNCaP xenograft mice; for Biodistribution Blood / Biodistribution Bone / Biodistribution Heart / Biodistribution Intestine / Biodistribution Kidneys / Biodistribution LNCAP-tumor / Biodistribution Liver / Biodistribution Lung / Biodistribution Muscle / Biodistribution Prostate / Biodistribution Spleen / Biodistribution Thyroid: i.v. 30 pmol, n=5
# PSMA = biological target: T1, PSMA (Homo sapiens, UniProt Q04609); experiment: Equilibrium dissociation constant Kd / Bmax, saturation binding on PSMA-positive LNCaP cells; conditions: Scatchard plots
# T1 construct: host or cells: LNCaP cells
# Method: The equilibrium dissociation constant describing the interaction of the radiolabeled ligands with the PSMA binding sites was determined in PSMA-positive LNCaP cell lines (Cell Line Service, Eppelheim, Germany). LNCaP cells were seeded at a density of 10^6 cells/well on a 6-well plate (Corning, ME, USA) and incubated under 5% CO2 at 37 °C for 48 h with medium (minimum essential medium Eagle supplemented with 2 mM L-glutamine, 0.1 mM non-essential amino acids (NEAA), 1.0 mM sodium pyruvate, 10% fetal bovine serum, 100 U/ml penicillin, and 100 µg/ml streptomycin) (Lonza, Verviers, Belgium) in a humidified incubator (Thermo Heracell 150 CO2-Incubator, MA, USA). To determine the nonspecific binding, the medium was removed from selected wells, and 1 ml of a solution of 0.1 mM of 2-(phosphonomethyl)-pentanedioic acid (2-PMPA) in fresh medium was added. […] The plates were then incubated under 5% CO2, at 37 °C for 1 h. After that, the medium was removed and the cells incubated under the same incubation conditions for 3 h with different concentrations (0.25 nM, 2.5 nM, 5 nM, 10 nM, 25 nM, 50 nM, and 75 nM) of the radiotracer under investigation in 1 ml fresh medium.
# After 3 h, the cells were washed three times with 1 ml PBS, and the cells were finally lysed by adding 1 ml of 1 M NaOH and incubating them for 10 min at room temperature. All samples were measured with a gamma counter (Nuklear Medizintechnik Dresden Isomed 100, Dresden, Germany) and were decay-corrected. The equilibrium dissociation constant (Kd) and the maximum density of receptors (Bmax) were calculated by non-linear regression using GraphPad Prism 8.0.2 (GraphPad Software, San Diego, USA).
# LNCaP cells [1] = experiment: Internalization in LNCaP cells; assay type: cell-based; conditions: n=3
# Method: (§1) The cell binding determined in these experiments is the sum of specific and nonspecific cell binding. To determine the values for nonspecific cell binding and internalization, all experiments were additionally performed in the presence of 2-PMPA.
# (§2) The plates were incubated for 1 h; after which, 0.75 pmol of the radiotracer to be examined was added to 1 ml of fresh medium. The cells were incubated for 30 min, 1, 2, 3, and 5 h. At each time point, the supernatant was removed and the cells washed with 1 ml of PBS. To dissociate the receptor-bound radioligand, the cells were washed twice with 1 ml of a 0.1 M glycine buffer solution at pH 2.8 for 5 min. The 0.1 M glycine–HCl buffer dissociated all the surface-bound complexes. The cells were then washed with 1 ml of PBS, and the internalized fraction was determined by solubilizing the cells with 1 ml of 1 M NaOH and incubating them for 10 min at room temperature. The radioactivity collected from the culture medium, 0.1 M glycine (surface-bound), and 1 M NaOH (internalized fraction) was measured in a gamma counter and decay-corrected. Cell binding was calculated from the surface-bound (0.1 M glycine) and the internalized fraction (1 M NaOH). The internalized fraction was expressed as a percentage of cell binding (internalization to cell-bound radioactivity ratio). All cell uptake experiments were run in triplicate.
# LNCaP cells [2] = experiment: Cellular uptake (specific cell binding) in LNCaP cells; assay type: cell-based; conditions: n=3
# Method: as §1, §2
# T1 sequence (Q04609 whole entry): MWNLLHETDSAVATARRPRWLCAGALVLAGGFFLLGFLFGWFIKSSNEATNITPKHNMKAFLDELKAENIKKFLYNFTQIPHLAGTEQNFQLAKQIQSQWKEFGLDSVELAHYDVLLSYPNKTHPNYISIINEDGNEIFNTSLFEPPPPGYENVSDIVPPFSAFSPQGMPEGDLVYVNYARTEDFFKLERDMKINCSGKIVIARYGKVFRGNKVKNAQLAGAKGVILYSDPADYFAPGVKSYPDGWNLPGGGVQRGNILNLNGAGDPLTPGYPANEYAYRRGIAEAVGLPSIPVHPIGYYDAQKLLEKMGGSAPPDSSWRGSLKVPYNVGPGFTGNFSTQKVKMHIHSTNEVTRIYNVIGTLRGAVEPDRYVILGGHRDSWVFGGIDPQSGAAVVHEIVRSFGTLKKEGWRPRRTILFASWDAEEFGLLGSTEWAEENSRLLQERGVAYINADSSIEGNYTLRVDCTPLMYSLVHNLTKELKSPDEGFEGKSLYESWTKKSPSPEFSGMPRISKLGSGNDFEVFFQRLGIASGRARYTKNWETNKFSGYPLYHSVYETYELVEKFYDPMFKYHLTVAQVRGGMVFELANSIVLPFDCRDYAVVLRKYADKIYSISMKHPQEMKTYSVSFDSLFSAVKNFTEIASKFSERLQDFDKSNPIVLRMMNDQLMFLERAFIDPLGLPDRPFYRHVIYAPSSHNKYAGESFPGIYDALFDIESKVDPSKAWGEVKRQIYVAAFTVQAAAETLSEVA
compound,measurement,setting,value
"CC(=O)N1CCCCCNC(=O)CCC(=O)N2CCCCCNC(=O)CCC(=O)N(CCCCCNC(=O)CCC(=O)NCC3CCC(C(=O)NC(Cc4ccc5ccccc5c4)C(=O)NCCCCC(NC(=O)NC(CCC(=O)O)C(=O)O)C(=O)O)CC3)[O][89Zr+]([O]1)[O]2 (centres unmarked) [[^89Zr]Zr-PSMA-DFO, [^89Zr]Zr-N-sucDf-AMCHA-2Nal-EuK]",Visibility of LNCaP tumor xenograft in PET,"LNCaP tumor xenograft; 48 h p.i., 10 MBq",still clearly visible; also recorded: remained clearly visible
same,Radioactivity in the bladder,"LNCaP tumor xenograft; mice, 48 h after injection",no detectable radioactivity
same,Share of renal radioactivity due to specific binding,"LNCaP tumor xenograft; mouse, blocking experiment with 2-PMPA",approximately two-thirds
same,Overall effective dose (ICRP 60),prostate cancer relapse,0.11 mSv/MBq
same,SUVmax left prostate lobe,prostate cancer relapse; 48 h p.i.,9.47
same,SUVmax right prostate lobe,prostate cancer relapse; 48 h p.i.,13.25
same,SUVmax left prostate lobe,prostate cancer relapse; 72 h p.i.,7.14
same,SUVmax right prostate lobe,prostate cancer relapse; 72 h p.i.,13.05
same,Kidney dose,prostate cancer relapse; estimated from two PET scans,2.8 mGy/MBq
same,Period over which the radioligand was found stable,"37 °C, PBS and human serum, TLC, HPLC in PBS, listed as Zr-89-radioligand",7 days
same,Radiochemical purity remaining on storage,storage in aqueous solution for 7 days,> 99%
same,Tumor/blood ratio,LNCaP tumor xenografts; 2 h p.i.,183 ± 42
same,Tumor/kidneys ratio,LNCaP tumor xenografts; 2 h p.i.,0.31 ± 0.06
same,Tumor/liver ratio,LNCaP tumor xenografts; 2 h p.i.,27.5 ± 3.2
same,Tumor/muscle ratio,LNCaP tumor xenografts; 2 h p.i.,534 ± 62
same,Biodistribution Blood,LNCaP tumor xenografts; 2 h p.i.,0.14 ± 0.02 %ID/g
same,Biodistribution Bone,LNCaP tumor xenografts; 2 h p.i.,0.15 ± 0.04 %ID/g
same,Biodistribution Heart,LNCaP tumor xenografts; 2 h p.i.,0.11 ± 0.05 %ID/g
same,Biodistribution Intestine,LNCaP tumor xenografts; 2 h p.i.,0.65 ± 0.15 %ID/g
same,Biodistribution Kidneys,LNCaP tumor xenografts; 2 h p.i.,86.7 ± 18.7 %ID/g
same,Biodistribution LNCAP-tumor,LNCaP tumor xenografts; 2 h p.i.,26.3 ± 5.3 %ID/g
same,Biodistribution Liver,LNCaP tumor xenografts; 2 h p.i.,0.95 ± 0.15 %ID/g
same,Biodistribution Lung,LNCaP tumor xenografts; 2 h p.i.,0.5 ± 0.04 %ID/g
same,Biodistribution Muscle,LNCaP tumor xenografts; 2 h p.i.,0.05 ± 0.02 %ID/g
same,Biodistribution Prostate,LNCaP tumor xenografts; 2 h p.i.,0.15 ± 0.04 %ID/g
same,Biodistribution Spleen,LNCaP tumor xenografts; 2 h p.i.,0.49 ± 0.07 %ID/g
same,Biodistribution Thyroid,LNCaP tumor xenografts; 2 h p.i.,0.18 ± 0.03 %ID/g
same,Tumor/blood ratio,LNCaP tumor xenografts; 4 h p.i.,180 ± 61
same,Tumor/kidneys ratio,LNCaP tumor xenografts; 4 h p.i.,0.55 ± 0.01
same,Tumor/liver ratio,LNCaP tumor xenografts; 4 h p.i.,29.6 ± 5.1
same,Tumor/muscle ratio,LNCaP tumor xenografts; 4 h p.i.,297 ± 62
same,Biodistribution Blood,LNCaP tumor xenografts; 4 h p.i.,0.13 ± 0.04 %ID/g
same,Biodistribution Bone,LNCaP tumor xenografts; 4 h p.i.,0.13 ± 0.03 %ID/g
same,Biodistribution Heart,LNCaP tumor xenografts; 4 h p.i.,0.12 ± 0.03 %ID/g
same,Biodistribution Intestine,LNCaP tumor xenografts; 4 h p.i.,0.54 ± 0.10 %ID/g
same,Biodistribution Kidneys,LNCaP tumor xenografts; 4 h p.i.,41.3 ± 2.37 %ID/g
same,Biodistribution LNCAP-tumor,LNCaP tumor xenografts; 4 h p.i.,22.8 ± 1.5 %ID/g
same,Biodistribution Liver,LNCaP tumor xenografts; 4 h p.i.,0.79 ± 0.17 %ID/g
same,Biodistribution Lung,LNCaP tumor xenografts; 4 h p.i.,0.12 ± 0.03 %ID/g
same,Biodistribution Muscle,LNCaP tumor xenografts; 4 h p.i.,0.08 ± 0.02 %ID/g
same,Biodistribution Prostate,LNCaP tumor xenografts; 4 h p.i.,1.12 ± 0.16 %ID/g
same,Biodistribution Spleen,LNCaP tumor xenografts; 4 h p.i.,0.61 ± 0.09 %ID/g
same,Biodistribution Thyroid,LNCaP tumor xenografts; 4 h p.i.,0.13 ± 0.02 %ID/g
same,Tumor/blood ratio,LNCaP tumor xenografts; 24 h p.i.,309 ± 89
same,Tumor/kidneys ratio,LNCaP tumor xenografts; 24 h p.i.,1.0 ± 0.3 and 1.02 ± 0.28
same,Tumor/liver ratio,LNCaP tumor xenografts; 24 h p.i.,40.0 ± 1.1
same,Tumor/muscle ratio,LNCaP tumor xenografts; 24 h p.i.,450 ± 38
same,Biodistribution Blood,LNCaP tumor xenografts; 24 h p.i.,0.05 ± 0.01 %ID/g
same,Biodistribution Bone,LNCaP tumor xenografts; 24 h p.i.,0.18 ± 0.02 %ID/g
same,Biodistribution Heart,LNCaP tumor xenografts; 24 h p.i.,0.09 ± 0.02 %ID/g
same,Biodistribution Intestine,LNCaP tumor xenografts; 24 h p.i.,0.25 ± 0.08 %ID/g
same,Biodistribution Kidneys,LNCaP tumor xenografts; 24 h p.i.,15.4 ± 4.1 %ID/g
same,Biodistribution LNCAP-tumor,LNCaP tumor xenografts; 24 h p.i.,14.9 ± 1.2 %ID/g
same,Biodistribution Liver,LNCaP tumor xenografts; 24 h p.i.,0.37 ± 0.03 %ID/g
same,Biodistribution Lung,LNCaP tumor xenografts; 24 h p.i.,0.04 ± 0.01 %ID/g
same,Biodistribution Muscle,LNCaP tumor xenografts; 24 h p.i.,0.03 ± 0.01 %ID/g
same,Biodistribution Prostate,LNCaP tumor xenografts; 24 h p.i.,0.50 ± 0.01 %ID/g
same,Biodistribution Spleen,LNCaP tumor xenografts; 24 h p.i.,0.36 ± 0.08 %ID/g
same,Biodistribution Thyroid,LNCaP tumor xenografts; 24 h p.i.,0.05 ± 0.01 %ID/g
same,In vivo stability (no time-dependent increase in Zr-89 accumulation in bone),"LNCaP tumor xenografts; mice, 24 h or 48 h p.i., biokinetics and small-animal PET",convincing in vivo stability
same,Bmax (maximum achievable concentration on 10^6 tumor cells),PSMA,1428 ± 42 fmol/10^6 cells
same,Specific internalized activity as percentage of specific cell-bound activity,LNCaP cells [1]; 0.5 h,32.7±4.1%
same,Specific internalized activity as percentage of specific cell-bound activity,LNCaP cells [1]; 1 h,39.8±0.4%
same,Specific internalized activity as percentage of specific cell-bound activity,LNCaP cells [1]; 2 h,48.0±3.4%
same,Specific internalized activity as percentage of specific cell-bound activity,LNCaP cells [1]; 3 h,50.0±0.6%
same,Specific internalized activity as percentage of specific cell-bound activity,LNCaP cells [1]; 5 h,61.7±3.4%
same,Specific binding in LNCaP cells as percentage of total activity,LNCaP cells [2]; 0.5 h,29.1±2.1%
same,Specific binding in LNCaP cells as percentage of total activity,LNCaP cells [2]; 1 h,38.5±2.3%
same,Specific binding in LNCaP cells as percentage of total activity,LNCaP cells [2]; 2 h,46.5±1.3%
same,Specific binding in LNCaP cells as percentage of total activity,LNCaP cells [2]; 3 h,48.8±1.0%
same,Specific binding in LNCaP cells as percentage of total activity,LNCaP cells [2]; 5 h,49.4±1.3%
